“Also recorded” adds a separate entry of the source.
Legend:
[1] = test system: cultured hippocampal neurons; test: MPP+ toxicity in cultured neurons (MTT); assay type: cell-based; conditions: 10 μM compound, 10 μM MPP+, 24 hrs
Experimental: FIGS. 35A-35B show P7C3-S243 and P7C3-A20 protect cultured hippocampal and cortical neurons from MPP^+ toxicity. […] Experiments were performed 2 independent times with 8-12 replicates of each sample both times.

[2] = test system: cerebral cortical neurons; conditions: previously reported; cited from earlier work
6-OHDA-exposed rats = test: 6-OHDA rat model of Parkinson's disease; assay type: in vivo
Experimental: (FIG. 34A) Schematic of the experimental design illustrates that rats received a unilateral stereotactic injection of 6-OHDA or saline in the medial forebrain bundle (MFB), followed by daily injection of P7C3-S243 for 7 days. Open field and cylinder tests were performed 8-10 days after 6-OHDA injection, and the amphetamine circling test was conducted on day 11. Rats were transcardially perfused on day 14, and brain tissue was processed for neurochemistry and immunohistochemistry analysis. […] Scale bars=250 μm. […] No difference was found in the concentration of serotonin in all groups (one-way ANOVA). For all experiments in FIG. 34, n=10 per group except for the HPLC analysis, for which n=7.
FIGS. 36A-36F show pretreatment with P7C3-A20 or P7C3-S243 (10 mg/kg/day) protects rats from 6-OHDA toxicity. (FIG. 36A) Schematic of the experimental design illustrates that rats were pretreated for 3 days with either P7C3-A20 or P7C3-S243, and then administered either 6-OHDA or saline by stereotactic injection in the medial forebrain bundle (MFB), followed by 7 more days of treatment with either P7C3-A20 or P7C3-S243. Open field and cylinder tests were performed between days 8-10, and the amphetamine circling test was performed on day 11. Rats were transcardially perfused on day 14, and brain tissue was processed for neurochemistry and immunohistochemistry analysis. […] Scale bars=250 μm.
FIGS. 37A-37B show treatment of 6-OHDA-exposed rats with P7C3-S243 preserves both TH and NeuN staining, illustrating that TH staining corresponds to neuronal survival. […] DAPI was used as a nuclear marker.

[3] = test system: dopaminergic neurons within the substantia nigra; conditions: previously reported; cited from earlier work
[4] = test system: motor neurons in the spinal cord; conditions: previously reported; cited from earlier work
[5] = Long-term treatment: weight, behavior, appearance
[6] = test system: newborn hippocampal neurons; conditions: previously reported; cited from earlier work
degenerating axons = test: Silver staining of degenerating axons after blast-mediated TBI
Experimental: Optical densitometry of silver-stained tissue was used to quantify the magnitude of staining, such that greater impedance of light through the section reflected greater axonal degeneration (FIG. 18B).
All brains were stored in a freezer at −80° C. before sectioning. […] Every 1st-12th sections of each series of 12 sections (interval: 480 μm) were collected separately. All sections were stored free-floating in FD sections storage solution (FD Neurotechnologies, Columbia, Md.) at −20° C. before further processing.
For silver staining, sections were collected in 0.1 M phosphate buffer (pH 7.4) containing 4% paraformaldehyde and fixed for 5 days at 4° C. Sections were then processed for the detection of neurodegeneration with FD NeuroSilver Kit II (FD Neurotechnologies) according to the manufacturer's instructions (for detailed procedures, cf. the manual of PK301, available at www.fdneurotech.com). Subsequently, all sections were mounted on slides, dehydrated in ethanol, cleared in xylene, and coverslipped with Permount (Fisher Scientific, Fair Lawn, N.J.).
The microscope light intensity and camera exposure were held constant. The operator outlined areas of interest around specific brain regions and recorded the intensity of light passing through the slide. Degenerating axons allowed less light to pass through the section due to their uptake of silver stain, so lower light intensity correlated with increased degeneration. Operator performing quantification was blinded to condition and treatment.

[7] = test system: newborn hippocampal neurons; test: In vivo neuroprotection assay: BrdU+ newborn hippocampal neurons; design: species or system mice
Experimental: Results. Our most robust assay involves monitoring neuroprotection of newborn hippocampal neurons in mice because this assay gives a simultaneous readout of efficacy, acute toxicity and cell permeability. For this reason, all analogs of P7C3 were evaluated initially by infusing them directly into the left lateral ventricle of environmentally-deprived^ix live mice using a subcutaneously implanted osmotic minipump. Compounds were delivered intracerebroventricularly (ICV) over a 7 day period at a concentration of 10 μM (12 μL/d).^x Coincident with ICV administration of drug, mice were dosed daily with the thymidine analog bromodeoxyuridine (BrdU, IP, 50 mg/kg) to mark newly born hippocampal neural precursor cells. At the end of the 1 week dosing, animals were sacrificed and transcardially perfused. Brain slices were stained with antibodies to BrdU, and the number of surviving neural precursor cells was quantified by counting the number of BrdU+ cells in the hippocampal dentate gyrus. To avoid complications arising from the surgical implantation of the pump, we quantified neurogenesis in the hemisphere opposite to compound infusion. Finally, to obtain consistent data across many animals, the number of BrdU+ cells was normalized to the volume of the dentate gyrus.
In Vivo Neuroprotection Assay. Test compounds were evaluated as described previously.^2 Compounds were infused intracerebroventricularly (i.c.v.) into the left lateral ventricle of four adult (12 week old) wild-type C57BL/J6 mice by means of surgically implanted Alzet osmotic minipumps that delivered solution into animals at a constant rate of 0.5 μl/hour for 7 days. Alternatively, compounds were administered intraperitoneally twice daily. Bromodeoxyuridine (BrdU) was injected intraperitoneally at 50 mg/kg/day for six days during pump infusion. Twenty-four hours after the final BrdU administration, mice were sacrificed by transcardial perfusion with 4% paraformaldehyde at pH 7.4, and their brains were processed for immunohistochemical detection of incorporated BrdU in the SGZ. Dissected brains were immersed in 4% paraformaldehyde overnight at 4° C., then cryoprotected in sucrose before being sectioned into 40 μm thick free-floating sections. Unmasking of BrdU antigen was achieved through incubating tissue sections for two hours in 50% formamide/2×SSC at 65° C., followed by a five minute wash in 2×SSC and subsequent incubation for thirty minutes in 2M HCl at 37° C. Sections were processed for immunohistochemical staining with mouse monoclonal anti-BrdU (1:100). The number of BrdU+ cells in the entire dentate gyrus SGZ in the contralateral hemisphere (opposite side of surgically implanted pump) was quantified by counting BrdU+ cells within the SGZ and dentate gyrus in every fifth section throughout the entire hippocampus and then normalizing for dentate gyrus volume.

μ-opioid receptor = μ-opioid receptor (Homo sapiens, UniProt P35372); test: Ligand displacement (Psychoactive Drug Screening Program); assay type: binding
Sequence of μ-opioid receptor (P35372 whole entry, species assumed): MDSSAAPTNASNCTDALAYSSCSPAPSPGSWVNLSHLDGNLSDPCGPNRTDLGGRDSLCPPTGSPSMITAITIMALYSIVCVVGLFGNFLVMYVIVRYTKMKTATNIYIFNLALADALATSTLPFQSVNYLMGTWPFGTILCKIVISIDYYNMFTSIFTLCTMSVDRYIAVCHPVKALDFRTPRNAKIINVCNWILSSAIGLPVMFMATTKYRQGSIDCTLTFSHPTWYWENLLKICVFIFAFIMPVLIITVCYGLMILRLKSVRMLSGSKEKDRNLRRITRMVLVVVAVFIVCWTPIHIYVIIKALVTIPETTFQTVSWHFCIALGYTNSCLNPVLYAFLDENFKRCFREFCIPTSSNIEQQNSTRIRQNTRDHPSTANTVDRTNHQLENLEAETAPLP

HCC44 = test: Toxicity towards human cancer cell line; assay type: cell-based
[8] = target: peripheral benzodiazepine receptor (translocator protein, TSPO) (Rattus norvegicus, UniProt P16257); test: Ligand displacement (Psychoactive Drug Screening Program); assay type: binding
[9] = test system: 47 neuronal receptors and channels; test: NIH Psychoactive Drug Screening Program panel; assay type: binding
[10] = 10 mg/kg/day, pretreated 3 days plus 7 more days
[11] = 10 mg/kg/day, 7 days after 6-OHDA
[12] = single enantiomers, 3 mg/kg/day

SMILES: COc1cccc(NCC(F)Cn2c3ccc(Br)cc3c3cc(Br)ccc32)c1 (stereo not drawn) [P7C3-A20, N-(3-(3,6-dibromo-9H-carbazol-9-yl)-2-fluoropropyl)-3-methoxyaniline]
- protection (MTT) [1]: significant protection
- protection of cerebral cortical neurons [2]: protect rat cerebral cortical neurons
- TH-positive cells compared to 6-OHDA-Vehicle group (6-OHDA-exposed rats; [10]): significant increase
- ipsilateral rotations (amphetamine-circling) of 6-OHDA+vehicle animals compared to 6-OHDA+compound animals (6-OHDA-exposed rats; [10]): significant increase
- total distance traveled (open field) of 6-OHDA+vehicle animals compared to 6-OHDA+compound animals (6-OHDA-exposed rats; [10]): significant decrease
- total rearings (cylinder test) of 6-OHDA+vehicle animals compared to 6-OHDA+compound animals (6-OHDA-exposed rats; [10]): significant decrease
- protection of substantia nigra neurons from MPTP (earlier report) [3]: protect neurons in the substantia nigra
- motor neuron cell death in the spinal cord [4]: minimize motor neuron cell death
- impact on weight, behavior or appearance ([5]; up to 40 mg/kg/d for 21 d): no negative impact
- activity in the in vivo hippocampal neuroprotection assay (previous studies) [6]: substantially improved activity

SMILES: COc1cccc(NCC(F)Cn2c3ccc(Br)cc3c3cc(Br)ccc32)n1 (racemic) [P7C3-S243, N-(3-(3,6-dibromo-9H-carbazol-9-yl)-2-fluoropropyl)-6-methoxypyridin-2-amine]
- protection (MTT) [1]: significant protection
- axonal degeneration, cerebellar molecular layer (degenerating axons; 0.3 mg/kg/day): Extensive axonal degeneration
- silver staining in CA1, corpus callosum, thalamus, cortex, olfactory bulb, striatum, dentate gyrus, cerebellum (degenerating axons; 0.3 mg/kg/day): prominent silver staining of degenerating axons
- axonal degeneration, cerebellar molecular layer (degenerating axons; 3 and 30 mg/kg/day): blocked
- axonal degeneration, CA1 stratum radiatum (degenerating axons; 3 and 30 mg/kg/day from 24 hours after injury): blocked
- axonal and cellular degeneration, thalamus, cortex, CA1 (degenerating axons; 14 days after injury, treatment from 24 hours, FIG. 7): ameliorated
- TH and NeuN immunofluorescence of the SNc (6-OHDA-exposed rats; 10 mg/kg/day for 7 days): preservation of co-localized tyrosine hydroxylase (TH) and NeuN
- TH-positive cells compared to 6-OHDA-Vehicle group (6-OHDA-exposed rats; [11]): significant increase
- ipsilateral rotations (amphetamine-circling) of 6-OHDA+vehicle animals compared to 6-OHDA+compound animals (6-OHDA-exposed rats; [11]): significant increase
- total distance traveled (open field) of 6-OHDA+vehicle animals compared to 6-OHDA+compound animals (6-OHDA-exposed rats; [11]): significant decrease
- total rearings (cylinder test) of 6-OHDA+vehicle animals compared to 6-OHDA+compound animals (6-OHDA-exposed rats; [11]): significant decrease
- striatal concentration of dopamine, DOPAC, and homovanillic acid compared to 6-OHDA-Vehicle group (6-OHDA-exposed rats; 10 mg/kg/day, 7 days after 6-OHDA, HPLC): significant increase
- TH-positive cells compared to 6-OHDA-Vehicle group (6-OHDA-exposed rats; [10]): significant increase
- ipsilateral rotations (amphetamine-circling) of 6-OHDA+vehicle animals compared to 6-OHDA+compound animals (6-OHDA-exposed rats; [10]): significant increase
- total distance traveled (open field) of 6-OHDA+vehicle animals compared to 6-OHDA+compound animals (6-OHDA-exposed rats; [10]): significant decrease
- total rearings (cylinder test) of 6-OHDA+vehicle animals compared to 6-OHDA+compound animals (6-OHDA-exposed rats; [10]): significant decrease
- impact on weight, behavior or appearance ([5]; up to 10 mg/kg/d for 21 d): no negative impact
- activity relative to P7C3 and P7C3-A20 ([7]; ICV, 1 week, FIG. 1): superior to P7C3 and comparable to P7C3-A20
- number of surviving newborn hippocampal neurons ([7]; ICV, 1 week, FIG. 1): approximately doubled
- dose at ceiling of efficacy ([7]; administered intraperitoneally): 10 mg/kg/day
- dose at which active ([7]; administered intraperitoneally): 1 mg/kg/day

SMILES: COc1cccc(NCC(F)Cn2c3ccc(Br)cc3c3cc(Br)ccc32)n1 (single isomer, unassigned; (-)) [(−)-P7C3-S243, (−)-N-(3-(3,6-dibromo-9H-carbazol-9-yl)-2-fluoropropyl)-6-methoxypyridin-2-amine]
- axonal degeneration, CA1 stratum radiatum (degenerating axons; [12]): complete protection from axonal degeneration
- axonal degeneration, cerebellar molecular layer (degenerating axons; [12]): blocked
- silver staining in CA1, corpus callosum, thalamus, cortex, olfactory bulb, striatum, dentate gyrus, cerebellum (degenerating axons; [12]): protected from axonal degeneration
- IC50 (μ-opioid receptor): 8.2 µM
- IC50 (HCC44): > 10 µM
- IC50 [8]: 0.35 µM
- neuroprotective activity of pure enantiomers ([7]; ICV 0.5 μL/h, 7 days, FIG. 2): highly active; also recorded: high activity
- binding partners among 47 neuronal receptors and channels [9]: no compelling binding partners were identified
